Drawing on patent US9044015B2, “Heterocyclic compounds as pesticides” (Bayer CropScience AG, priority 2010, dated 2015), this text covers chromatographic logP and pest or weed control for 36 compounds.

The structures appear in SMILES notation.

One series is described as follows: physchem. As for the experimental part: 1) Description of Method for Determination of the log P Values (Formic Aid Method)
Eluents for determination in the acidic range (pH 3.4):
Eluent A: acetonitrile+1 ml of formic acid/liter. Eluent B: water+0.9 ml of formic acid/liter.
The lambda max values were determined in the maxima of the chromatographic signals using the UV spectra from 200 nm to 400 nm.

The subject of the next series is Myzus persicae. Nature of the series: Myzus test (spray treatment). Format: in vivo. Conditions: foliar, application rate 500 g/ha, sprayed Chinese cabbage leaf discs, all stages of green peach aphid, read-out: efficacy in % (aphids killed). As for the experimental part: Solvent 78 parts by weight of acetone • • 1.5 parts by weight of dimethylformamide
Emulsifier: 0.5 part by weight of alkylaryl polyglycol ether
To prepare an appropriate active ingredient preparation, 1 part by weight of active ingredient is mixed with the stated amounts of solvent and emulsifier, and the concentrate is diluted with emulsifier-containing water to the desired concentration.

Where [1] appears, read: reverse-phase C18 HPLC column, pH 3.4, logP (HCOOH), final compounds table, HPLC reverse-phase C18, acidic range pH 3.4, 55° C.

On to `CS(=O)(=O)NC(=O)c1csc(-c2cnn(-c3cccnc3)c2)n1` [Compound 36, N-(Methylsulphonyl)-2-[1-(pyridin-3-yl)-1H-pyrazol-4-yl]-1,3-thiazole-4-carboxamide], for which the chromatographic logP in the series “physchem” (pH 3.4, log P (HCOOH)) was found to be 1.25; in “physchem” (pH 3.4, logP (HCOOH)), 1.25. Further, the pest or weed control at 500 g/ha in the series on Myzus persicae came out at 100%.
With `CN(C)S(=O)(=O)NC(=O)c1cccc(-c2cnn(-c3cccnc3)c2)n1` [Compound 27], in the series “physchem” (setting [1]), the chromatographic logP was 1.96. Further, in the series with Myzus persicae, the pest or weed control at 500 g/ha came out at 100%.
As to `CS(=O)(=O)NC(=O)c1nc(-c2cnn(-c3cccnc3)c2)cs1` [Compound 45], in “physchem” (pH 3.4, logP (HCOOH)), the chromatographic logP is 1.16. The pest or weed control at 500 g/ha with Myzus persicae stood at 90%.
Consider `CCN(CC)S(=O)(=O)NC(=O)c1cccc(-c2cnn(-c3cncc(F)c3)c2)n1` [Compound 39], for which, in “physchem” (pH 3.4, logP (HCOOH)), the chromatographic logP came out at 2.98. Moreover, the pest or weed control at 500 g/ha in the series on Myzus persicae came to 100%.
For `CC(C)S(=O)(=O)NC(=O)c1cccc(-c2nnc(-c3cncc(F)c3)s2)n1` [Compound 72] the same measures were 2.31 and 100%.
Take `C#CCN(C(=O)c1cccc(-c2cnc(-c3cncc(F)c3)s2)n1)S(C)(=O)=O` [Compound 68]: the chromatographic logP in the series “physchem” (pH 3.4, logP (HCOOH)) was 2.56. Besides, the pest or weed control at 500 g/ha with Myzus persicae stood at 100%.
Turning to `CN(C)S(=O)(=O)NC(=O)c1cccc(-c2cnc(-c3cncnc3)s2)n1` [Compound 62], the chromatographic logP in the series “physchem” (setting [1]) was 1.9. In addition, in the series on Myzus persicae, the pest or weed control at 500 g/ha amounted to 80%.
Consider `CCS(=O)(=O)NC(=O)c1cccc(-c2cnc(-c3cncc(F)c3)s2)n1` [Compound 18], for which, in the series “physchem” (setting [1]), the chromatographic logP amounted to 2.33. Also, the pest or weed control at 500 g/ha in the series on Myzus persicae was found to be 100%.
As for `O=C(NS(=O)(=O)C1CC1)c1cccc(-c2cnn(-c3cncc(F)c3)c2)n1` [Compound 29], in “physchem” (setting [1]), the chromatographic logP is 2.35. Further, the pest or weed control at 500 g/ha in the series on Myzus persicae is 100%.
In the same order, the values of `O=C(NS(=O)(=O)Cc1ccccc1)c1cccc(-c2cnn(-c3cncc(F)c3)c2)n1` [Compound 33] are 2.89 and 100%.
In the series “physchem” (pH 3.4, logP (HCOOH)), `O=C(NS(=O)(=O)C1CC1)c1cccc(-c2cnc(-c3cncc(F)c3)s2)n1` [Compound 6] gave a chromatographic logP of 2.44. In the series on Myzus persicae, the pest or weed control at 500 g/ha was determined as 100%.
In “physchem” (setting [1]), `CS(=O)(=O)NC(=O)c1cccc(-c2cnc(-c3cncc(C#N)c3)s2)n1` [Compound 51] returned a chromatographic logP of 1.95. Besides, in the series with Myzus persicae, the pest or weed control at 500 g/ha turned out to be 100%.
As for `CCS(=O)(=O)NC(=O)c1cccc(-c2cnn(-c3cncc(F)c3)c2)n1` [Compound 26], the chromatographic logP in “physchem” (pH 3.4, logP (HCOOH)) stood at 2.21. Further, the pest or weed control at 500 g/ha in the series with Myzus persicae was found to be 100%.
In the same order, the values of `CS(=O)(=O)NC(=O)c1cccc(-c2cnc(-c3cccnc3)s2)n1` [Compound 12] are 1.56 and 100%.
For `CN(C)S(=O)(=O)NC(=O)c1cccc(-c2cnc(-c3cccnc3)s2)n1` [Compound 66] the same measures were 2.01 and 100%.
In the same order, the values of `Cc1nc(-c2cncc(F)c2)sc1-c1cc(C(=O)NS(C)(=O)=O)nn1C` [Compound 64] are 1.84 and 100%.
`CS(=O)(=O)NC(=O)c1cccc(-c2cnn(-c3cccnc3)c2)n1` [Compound 24]: the chromatographic logP in the series “physchem” (pH 3.4, logP (HCOOH)) turned out to be 1.48. In addition, in the series on Myzus persicae, the pest or weed control at 500 g/ha amounted to 100%.
Consider `O=C(NS(=O)(=O)Cc1ccccc1)c1cccc(-c2cnc(-c3cncc(F)c3)s2)n1` [Compound 21], for which, in “physchem” (pH 3.4, logP (HCOOH)), the chromatographic logP was 2.97. The pest or weed control at 500 g/ha in the series on Myzus persicae worked out at 80%.
For `O=C(NS(=O)(=O)C1CC1)c1cccc(-c2cnn(-c3cccnc3)c2)n1` [Compound 30] the same measures were 1.85 and 100%.
In “physchem” (setting [1]), `CC(C)(C)S(=O)(=O)NC(=O)c1cccc(-c2nnc(-c3cncc(F)c3)s2)n1` [Compound 77] displayed a chromatographic logP of 2.38. For the same compound, the pest or weed control at 500 g/ha in the series with Myzus persicae was 100%.
For `CCC(=O)NS(=O)(=O)c1cccc(-c2cnn(-c3cccnc3)c2)n1` [Compound 42] the same measures were 1.43 and 100%.
For `CS(=O)(=O)N(CC#N)C(=O)c1cccc(-c2cnc(-c3cncc(F)c3)s2)n1` [Compound 65], in the series “physchem” (setting [1]), the chromatographic logP stood at 2.28. Further, the pest or weed control at 500 g/ha in the series with Myzus persicae turned out to be 90%.
In the case of `CS(=O)(=O)NC(=O)c1cccc(-c2nnc(-c3cncc(F)c3)s2)n1` [Compound 3, 6-[5-(5-Fluoropyridin-3-yl)-1,3,4-thiadiazol-2-yl]-N-(methylsulphonyl)pyridine-2-carboxamide], the chromatographic logP in the series “physchem” (pH 3.4, log P (HCOOH)) is 1.79; in “physchem” (pH 3.4, logP (HCOOH)) it was 1.79. In addition, the pest or weed control at 500 g/ha with Myzus persicae was found to be 100%.
In the case of `CS(=O)(=O)NC(=O)c1cccc(-c2cnc(-c3cncc(F)c3)s2)n1` [Compound 9], the chromatographic logP in “physchem” (pH 3.4, logP (HCOOH)) was 2.05. The pest or weed control at 500 g/ha in the series on Myzus persicae came to 100%.
Take `Cc1nc(Cl)sc1S(=O)(=O)NC(=O)c1cccc(-c2cnc(-c3cncc(F)c3)s2)n1` [Compound 59]: the chromatographic logP in the series “physchem” (setting [1]) amounted to 3.41. Moreover, the pest or weed control at 500 g/ha in the series on Myzus persicae worked out at 100%.
The compound `CS(=O)(=O)N(c1cccc(-c2cnn(-c3cncc(F)c3)c2)n1)S(C)(=O)=O` [Compound 14] returned a chromatographic logP in the series “physchem” (pH 3.4, logP (HCOOH)) of 2.15. Further, the pest or weed control at 500 g/ha in the series with Myzus persicae came out at 90%.
For `O=C(NS(=O)(=O)c1ccccc1)c1cccc(-c2cnn(-c3cccnc3)c2)n1` [Compound 32], the chromatographic logP in the series “physchem” (setting [1]) turned out to be 2.26. In addition, the pest or weed control at 500 g/ha with Myzus persicae amounted to 90%.
Compound `O=C(NS(=O)(=O)c1ccccc1)c1cccc(-c2cnn(-c3cncc(F)c3)c2)n1` [Compound 31] gave a chromatographic logP in “physchem” (pH 3.4, logP (HCOOH)) of 2.82. Further, the pest or weed control at 500 g/ha with Myzus persicae came to 100%.
Consider `CCS(=O)(=O)NC(=O)c1cccc(-c2cnn(-c3cncnc3)c2)n1` [Compound 7], for which, in “physchem” (pH 3.4, logP (HCOOH)), the chromatographic logP is 1.63. The pest or weed control at 500 g/ha with Myzus persicae stood at 100%.
On to `O=C(NS(=O)(=O)Cc1ccccc1)c1cccc(-c2cnn(-c3cncnc3)c2)n1` [Compound 34], for which the chromatographic logP in “physchem” (setting [1]) was 2.28. In addition, the pest or weed control at 500 g/ha in the series with Myzus persicae was determined as 90%.
`CS(=O)(=O)NC(=O)c1csc(-c2cnn(-c3cncc(F)c3)c2)n1` [Compound 37] yielded a chromatographic logP in the series “physchem” (pH 3.4, logP (HCOOH)) of 1.66. Further, the pest or weed control at 500 g/ha in the series on Myzus persicae was found to be 90%.
In the same order, the values of `CN(C)S(=O)(=O)NC(=O)c1cccc(-c2cnc(-c3cncc(F)c3)s2)n1` [Compound 53] are 2.54 and 100%.
On to `CC(=O)NS(=O)(=O)c1cccc(-c2cnc(-c3cccnc3)s2)n1` [Compound 69, N-({6-[2-(Pyridin-3-yl)-1,3-thiazol-5-yl]pyridin-2-yl}sulphonyl)acetamide], for which the chromatographic logP in “physchem” (pH 3.4, log P (HCOOH)) was determined as 1.3; in “physchem” (pH 3.4, logP (HCOOH)) it was 1.3. For the same compound, the pest or weed control at 500 g/ha in the series with Myzus persicae amounted to 100%.
In the case of `CS(=O)(=O)NC(=O)c1cccc(-c2cnn(-c3cncnc3)c2)n1` [Compound 22], the chromatographic logP in “physchem” (pH 3.4, logP (HCOOH)) was 1.38. The pest or weed control at 500 g/ha in the series on Myzus persicae was found to be 100%.
For the compound `CC(C)S(=O)(=O)NC(=O)c1cccc(-c2cnc(-c3cncc(F)c3)s2)n1` [Compound 20], in the series “physchem” (setting [1]), the chromatographic logP turned out to be 2.61. Further, the pest or weed control at 500 g/ha in the series with Myzus persicae turned out to be 100%.
In the same order, the values of `O=C(NS(=O)(=O)CC(F)(F)F)c1cccc(-c2nnc(-c3cncc(F)c3)s2)n1` [Compound 73] are 2.42 and 100%.
